The values below come from patent US11299712B2, “Method for inducing differentiation of alveolar epithelial cells” (KYOTO UNIVERSITY, priority 2015, dated 2022).

In this experiment the test system is type II alveolar epithelial cells. Put plainly: Three-dimensional subculture of type II alveolar epithelial cells (AT2-P0 to AT2-P1) in medium for Step 5 with additives, SFTPC-GFP reporter cells. In kind it is cell-based, human. The conditions noted are these: for percentage of type II alveolar epithelial cells maintained of the whole including fibroblasts used for coculture / percentage of type II alveolar epithelial cells maintained relative to the epithelial cell component: AT2-P1, medium for Step 5 plus additive (300 ng/ml WIF, 100 ng/ml IGF2, 10 ng/ml EGF, 20 ng/ml NRG1 β, 3 μM CHIR99021); for percentage of type II alveolar epithelial cells maintained of the whole including fibroblasts used for coculture: control 9.4%; for percentage of type II alveolar epithelial cells maintained relative to the epithelial cell component: control 48.4%; for maintenance of type II alveolar epithelial cells compared with medium supplemented with EGF, NRG1β, CHIR99021: WIF1 300 ng/ml or IGF2 100 ng/ml vs EGF 10 ng/ml, NRG1β 20 ng/ml, CHIR99021 3 μM; for maintenance of type II alveolar epithelial cells in subculture (FIG. 17): medium for Step 5 supplemented with WIF1 (300 ng/ml) or IGF2 (100 ng/ml). The method, then:
On Day 35 of type II alveolar epithelial cell induction in Example 1 (i.e., upon completion of Step 5), the cell mass composed of fibroblasts and spheroids subjected to three-dimensional coculture was removed from the Cell Culture Inserts. The removed cell mass was cut into small pieces of approximately 1 mm with the use of a clean surgical knife, the cells were recovered with the addition of PBS, and centrifugation was carried out at 900 rpm for 5 minutes to remove the supernatant. 0.1% Trypsin/EDTA was added to the precipitate and incubation was then carried out at 37° C. for 15 minutes while adequately repeating pipetting.
Subsequently, DMEM supplemented with 2% FBS was added to neutralize trypsin, followed by centrifugation at 4° C. and 900 rpm for 7 minutes. The supernatant was suction-removed, 1% BSA/PBS was added to the remaining cell pellet, and the resultant was centrifuged again at 4° C. and 900 rpm for 5 minutes. The cell pellet was suspended in 1% BSA/PBS, the mouse anti-human Ep-CAM antibody (Santa Cruz) was added thereto, and the reaction was allowed to proceed at 4° C. for 20 minutes.
Subsequently, the cells were washed 2 times with 1% BSA/PBS, the ALEXA FLUOR® 647-labeled anti-mouse antibody (Life Technologies) was added thereto, and the reaction was allowed to proceed at 4° C. for 20 minutes. After the reaction product was washed 2 times with 1% BSA/PBS, propidium iodide was added in the end, and SFTPC-GFP-positive cells were isolated via FACS with the use of BD FACSAria® II or Aria® III (BD Biosciences). The isolated cells were used as the type II alveolar epithelial cells (AT2-P0).
When type II alveolar epithelial cells were to be subcultured, the type II alveolar epithelial cells were mixed with human fetal lung fibroblasts immediately after isolation, or cryopreserved type II alveolar epithelial cells were mixed with human fetal lung fibroblasts at a ratio of 1:50, the cell suspension of the medium for Step 5 comprising the cells at a cell density of 2.5×10^6 cells/ml and Y-27632 at the final concentration of 10 μM was mixed with MATRIGEL® (Corning) at a ratio of 1:1 at a low temperature, the resultant was immediately added to the upper layer of the Cell Culture Inserts, and the medium for Step 5 was added to the lower layer. The amount to be added to the upper layer of the 12-well plate Cell Culture Inserts is preferably 200 to 400 μL and the amount to be added to the lower layer thereof is preferably 1 ml.
On the first 2 days after the subculture, Y-27632 was added to the medium for Step 5 to the final concentration of 10 μM. Thereafter, the medium for Step 5 of the lower layer was selectively exchanged with another medium every other day. The type II alveolar epithelial cells were isolated 14 days after the initiation of culture, and culture was continued by repeating the three-dimensional coculture with the human fetal lung fibroblasts. As a subculture goes on to the following generation, the cells were designated as AT2-P1, AT2-P2. . . .

For the molecule `Cc1c[nH]c(-c2cnc(NCCNc3ccc(C#N)cn3)nc2-c2ccc(Cl)cc2Cl)n1` [CHIR99021, 6-[2-[4-(2,4-dichlorophenyl)-5-(4-methyl-1H-imidazol-2-yl)pyrimidin-2-ylamino]-ethylamino]pyridine-3-carbonitrile, reference compound], the “percentage of type II alveolar epithelial cells maintained of the whole including fibroblasts used for coculture” value (“percentage … for coculture” below) is reported as 0.5% and the “percentage of type II alveolar epithelial cells maintained relative to the epithelial cell component” value was 23.8%.
For the molecule EGF: EGF (Wako), medium additive, the “percentage … for coculture” value turned out to be 1.2% and the “percentage of type II alveolar epithelial cells maintained relative to the epithelial cell component” value is listed as 5.3%.
With “IGF2: protein encoded by the polynucleotide shown in NCBI Accession Number NM_000612 (R&D Systems)”, the “percentage … for coculture” value stood at 16.6%; the “percentage of type II alveolar epithelial cells maintained relative to the epithelial cell component” value is reported as 58.0%; the “maintenance of type II alveolar epithelial cells compared with medium supplemented with EGF, NRG1β, CHIR99021” value is given as “maintained with higher efficiency”; the “maintenance of type II alveolar epithelial cells in subculture (FIG. 17)” value is listed as “efficiently maintained”.
“WIF1: WNT signal inhibitor; protein encoded by the polynucleotide shown in NCBI Accession Number NM_007191 (R&D Systems)”: the “percentage … for coculture” value is recorded as 20.2%; the “percentage of type II alveolar epithelial cells maintained relative to the epithelial cell component” value is on record as 54.4%; the “maintenance of type II alveolar epithelial cells compared with medium supplemented with EGF, NRG1β, CHIR99021” value is “maintained with higher efficiency”; the “maintenance of type II alveolar epithelial cells in subculture (FIG. 17)” value was “efficiently maintained”.
